Results as given in patent US10828317B2, “Method of treating bacterial infections” (priority 2016, dated 2020).
≈ marks a conversion by molar mass, not a printed value. Where “and” joins values, the source holds several entries; their conditions need not be identical. Equal entries are not always repeated. Where two headings read alike, the source gives them in different places.

Key:
S. flexneri APV00907 = test: MIC and antibiogram; assay type: cell-based; conditions: for Antibiogram category (resistance pattern): letter before the MIC
From the text: (§1) Inhibition of Heliobacter is important in view of increasing resistance and its association to gastric cancer.

S. flexneri APV00906 = test: microbe, parasite or virus in culture; assay type: cell-based; conditions: for Antibiogram category (resistance pattern): letter before the MIC
From the text: as §1

S. sonnei APV00908 = test: MIC and antibiogram; assay type: cell-based; conditions: for Antibiogram category (resistance pattern): letter before the MIC
K. pneumoniae EN0262 = conditions: commercial antibiotics; data provided by IMBIM, BMC, Uppsala University; cited from earlier work
P. aeruginosa EN0422 = test: MIC; assay type: cell-based, Pseudomonas aeruginosa; conditions: Pseudomonas aeruginosa, read-out: MIC
E. coli EN002 = test: MIC, DtoIC; assay type: cell-based, Escherichia coli; conditions: Escherichia coli, read-out: MIC
Citrobacter sp. EN0465 = test: MIC; assay type: cell-based; conditions: Citrobacter, read-out: MIC
[1] = test system: A. pittii or A. nosocomialis EN0180; test: MIC; assay type: cell-based, Acinetobacter pittii or nosocomialis; conditions: read-out: MIC
P. mirabilis ST19 EN0445 = test: MIC; assay type: cell-based, Proteus mirabilis; conditions: Proteus mirabilis, read-out: MIC
S. marescens EN0454 = test: MIC; assay type: cell-based, Serratia marescens; conditions: Serratia, EN0454, Combination 2 AZT+trimethoprim+uridine+thymidine, Table 16; read-out: MIC
S. aureus EN008 = test: MIC, Gram-positive control; assay type: cell-based, Staphylococcus aureus; conditions: Staphylococcus aureus, EN008, Combination 2 AZT+trimethoprim+uridine+thymidine, Table 16; read-out: MIC
P. aeruginosa EN0459 = test: MIC; assay type: cell-based, Pseudomonas aeruginosa; conditions: Pseudomonas aeruginosa, read-out: MIC
P. aeruginosa EN014 = test: MIC, WT; assay type: cell-based, Pseudomonas aeruginosa; conditions: Pseudomonas aeruginosa, read-out: MIC
E. coli strain no 2 = test: MIC vs E. coli LMG 15862, penicillin resistant; conditions: Escherichia coli, Uridine 0 μg/ml
A. baumannii EN007 = test: MIC, WT (EN007 = EN0007); assay type: cell-based, Acinetobacter baumannii
M. luteus EN0455 = test: MIC; assay type: cell-based, Micrococcus luteus; conditions: Micrococcus luteus, EN0455, Combination 2 AZT+trimethoprim+uridine+thymidine, Table 16; read-out: MIC
E. coli = test: Murine peritonitis model; assay type: in vivo, mice; set-up: score at sampling: scale not given here; conditions: for CFU/ml PF / log CFU/ml PF / score at sampling: per mouse
P. mirabilis EN0457 = test: MIC; assay type: cell-based, Proteus mirabilis; conditions: Proteus mirabilis, EN0457, Combination 2 AZT+trimethoprim+uridine+thymidine, Table 16; read-out: MIC
P. aeruginosa EN004 = test: MIC, WT (EN004 = EN0004); assay type: cell-based, Pseudomonas aeruginosa
P. aeruginosa EN0460 = test: MIC; assay type: cell-based, Pseudomonas aeruginosa; conditions: Pseudomonas aeruginosa, read-out: MIC
A. baumannii EN016 = test: MIC, WT; assay type: cell-based, Acinetobacter baumannii; conditions: Acinetobacter baumannii, read-out: MIC
S. aureus strain no 13 = test: MIC vs S. aureus LMG 15975, MRSA; conditions: for MIC: Staphylococcus aureus; for MIC BrdUrd: 2 μg/ml of trimethoprim
[2] = combination AZT+trimethoprim+uridine, Table 17B

Compound: NCC[C@H](O)C(=O)N[C@@H]1C[C@H](N)[C@@H](O[C@H]2O[C@H](CN)[C@@H](O)[C@H](O)[C@H]2O)[C@H](O)[C@H]1O[C@H]1O[C@H](CO)[C@@H](O)[C@H](N)[C@H]1O [AMK, amikacin]
- Antibiogram category (resistance pattern) (S. flexneri APV00907): R*
- Antibiogram category (resistance pattern) (S. flexneri APV00906): R*
- Antibiogram category (resistance pattern) (S. sonnei APV00908): R*
- MIC (K. pneumoniae EN0262): 8 µg/mL (≈ 13.7 µM)

Compound: C[C@H]1[C@H](NC(=O)/C(=N\OC(C)(C)C(=O)O)c2csc(N)n2)C(=O)N1S(=O)(=O)O [ATM, aztreonam]
- MIC (K. pneumoniae EN0262): >16 µg/mL

Compound: Cc1cn([C@H]2C[C@H](N=[N+]=[N-])[C@@H](CO)O2)c(=O)[nH]c1=O [AZT, 3′-azido-3′-deoxythymidine]
- MIC (P. aeruginosa EN0422; EN0422, Combination 1 AZT+trimethoprim+uridine, Table 16): > 4 µg/mL
- MIC (P. aeruginosa EN0422; EN0422, Combination 2 AZT+trimethoprim+uridine+thymidine, Table 16): > 4 µg/mL
- MIC (P. aeruginosa EN0422; EN0422, combination AZT+trimethoprim+uridine, Table 6): > 4 µg/mL
- MIC (E. coli EN002; EN002, Combination 1 AZT+trimethoprim+uridine, Table 16): 0.016 µg/mL
- MIC (E. coli EN002; EN002, combination AZT+trimethoprim+uridine, Table 6): 0.016 µg/mL
- MIC (Citrobacter sp. EN0465; SP.EN0465, Combination 1 AZT+trimethoprim+uridine, Table 16): > 4 µg/mL
- MIC (Citrobacter sp. EN0465; SP.EN0465, Combination 2 AZT+trimethoprim+uridine+thymidine, Table 16): > 4 µg/mL
- MIC (Citrobacter sp. EN0465; SP.EN0465, combination AZT+trimethoprim+uridine, Table 6): > 4 µg/mL
- MIC ([1]; Combination 1 AZT+trimethoprim+uridine, Table 16): > 4 µg/mL
- MIC ([1]; Combination 2 AZT+trimethoprim+uridine+thymidine, Table 16): > 4 µg/mL
- MIC ([1]; combination AZT+trimethoprim+uridine, Table 6): > 4 µg/mL
- MIC (P. mirabilis ST19 EN0445; ST19EN0445, Combination 2 AZT+trimethoprim+uridine+thymidine, Table 16): > 4 µg/mL
- MIC (P. mirabilis ST19 EN0445; ST19EN0445, combination AZT+trimethoprim+uridine, Table 6): > 4 µg/mL
- MIC (S. marescens EN0454): > 4 µg/mL
- MIC (S. aureus EN008): > 4 µg/mL
- MIC (P. aeruginosa EN0459; EN0459, Combination 1 AZT+trimethoprim+uridine, Table 16): > 4 µg/mL
- MIC (P. aeruginosa EN0459; EN0459, Combination 2 AZT+trimethoprim+uridine+thymidine, Table 16): > 4 µg/mL
- MIC (P. aeruginosa EN0459; EN0459, combination AZT+trimethoprim+uridine, Table 6): > 4 µg/mL
- MIC (P. aeruginosa EN014; EN014, Combination 1 AZT+trimethoprim+uridine, Table 16): > 4 µg/mL
- MIC (P. aeruginosa EN014; EN014, Combination 2 AZT+trimethoprim+uridine+thymidine, Table 16): > 4 µg/mL
- MIC (P. aeruginosa EN014; EN014, combination AZT+trimethoprim+uridine, Table 6): > 4 µg/mL
- MIC (E. coli strain no 2; NO2, read-out: MIC AZT, Iclaprim 0.1): > 8 µg/mL
- MIC (E. coli strain no 2; NO2, read-out: MIC AZT, Iclaprim 0.2): > 8 µg/mL
- MIC (A. baumannii EN007; Acinetobacter baumannii, EN007, Combination 1 AZT+trimethoprim+uridine, Table 16, read-out: MIC): > 4 µg/mL
- MIC (A. baumannii EN007; Acinetobacter baumannii, EN007, Combination 2 AZT+trimethoprim+uridine+thymidine, Table 16, read-out: MIC): > 4 µg/mL
- MIC (A. baumannii EN007; Acinetobacter baumannii, EN007, combination AZT+trimethoprim+uridine, Table 6, read-out: MIC): > 4 µg/mL
- MIC (A. baumannii EN007; [2]): >4 µg/mL
- MIC (M. luteus EN0455): > 4 µg/mL
- CFU/ml PF (E. coli; AZT 30 mg/kg): 1.65E+04 CFU/ml and 4.25E+05 CFU/ml and 1.10E+07 CFU/ml and 6.75E+05 CFU/ml
- log CFU/ml PF (E. coli; AZT 30 mg/kg): 4.22 log CFU/ml and 5.63 log CFU/ml and 7.04 log CFU/ml and 5.83 log CFU/ml
- score at sampling (E. coli; AZT 30 mg/kg): 1
- inhibition in mice infected with E. coli (in words) (E. coli; murine peritonitis model): slight inhibition
- MIC (P. mirabilis EN0457): > 4 µg/mL
- MIC (P. aeruginosa EN004; Pseudomonas aeruginosa, EN004, Combination 1 AZT+trimethoprim+uridine, Table 16, read-out: MIC): > 4 µg/mL
- MIC (P. aeruginosa EN004; Pseudomonas aeruginosa, EN004, Combination 2 AZT+trimethoprim+uridine+thymidine, Table 16, read-out: MIC): > 4 µg/mL
- MIC (P. aeruginosa EN004; Pseudomonas aeruginosa, EN004, combination AZT+trimethoprim+uridine, Table 6, read-out: MIC): > 4 µg/mL
- MIC (P. aeruginosa EN004; [2]): >4 µg/mL
- MIC (P. aeruginosa EN0460; EN0460, Combination 1 AZT+trimethoprim+uridine, Table 16): > 4 µg/mL
- MIC (P. aeruginosa EN0460; EN0460, Combination 2 AZT+trimethoprim+uridine+thymidine, Table 16): > 4 µg/mL
- MIC (P. aeruginosa EN0460; EN0460, combination AZT+trimethoprim+uridine, Table 6): > 4 µg/mL
- MIC (A. baumannii EN016; EN016, Combination 1 AZT+trimethoprim+uridine, Table 16): > 4 µg/mL
- MIC (A. baumannii EN016; EN016, Combination 2 AZT+trimethoprim+uridine+thymidine, Table 16): > 4 µg/mL
- MIC (A. baumannii EN016; EN016, combination AZT+trimethoprim+uridine, Table 6): > 4 µg/mL
- MIC (S. aureus strain no 13; NO13, read-out: MIC AZT, Iclaprim 0, Uridine 0 μg/ml): > 32 µg/mL
- MIC (S. aureus strain no 13; NO13, read-out: MIC AZT, Iclaprim 0, Uridine 100 μg/ml): > 32 µg/mL
- MIC (S. aureus strain no 13; NO13, read-out: MIC AZT, Iclaprim 0, Uridine 300 μg/ml): > 32 µg/mL
- MIC (S. aureus strain no 13; NO13, read-out: MIC AZT, Iclaprim 0, Uridine 500 μg/ml): > 32 µg/mL
- MIC (S. aureus strain no 13; NO13, read-out: MIC AZT, Iclaprim 0.03, Uridine 300 μg/ml): ≤ 0.008 µg/mL
- MIC (S. aureus strain no 13; NO13, read-out: MIC AZT, Iclaprim 0.03, Uridine 500 μg/ml): ≤ 0.008 µg/mL

Compound: O=c1[nH]c(=O)n([C@H]2C[C@H](O)[C@@H](CO)O2)cc1Br [BrdUrd]
- MIC BrdUrd (S. aureus strain no 13; uridine 10 μg/ml): ≤2 µg/mL
- MIC BrdUrd (S. aureus strain no 13; uridine 100 μg/ml): ≤2 µg/mL

Compound: CC(C)(O/N=C(\C(=O)N[C@@H]1C(=O)N2C(C(=O)[O-])=C(C[n+]3ccccc3)CS[C@H]12)c1csc(N)n1)C(=O)O [CAZ, ceftazidime]
- Antibiogram category (resistance pattern) (S. flexneri APV00906): |
- MIC (K. pneumoniae EN0262): >32 µg/mL

Compound: CO/N=C(\C(=O)N[C@@H]1C(=O)N2C(C(=O)O)=C(COC(C)=O)CS[C@H]12)c1csc(N)n1 [CTX, cefotaxime]
- MIC (K. pneumoniae EN0262): >32 µg/mL

Compound: O=C(O)c1cn(C2CC2)c2cc(N3CCNCC3)c(F)cc2c1=O [Ciprofloxacin, ciprofloxacin]
- CFU/ml PF (E. coli; Ciprofloxacin 14 mg/kg): 1.75E+03 CFU/ml and 2.50E+02 CFU/ml and 1.00E+03 CFU/ml (2×)
- log CFU/ml PF (E. coli; Ciprofloxacin 14 mg/kg): 3.24 log CFU/ml and 2.40 log CFU/ml and 3.00 log CFU/ml (2×)
- score at sampling (E. coli; Ciprofloxacin 14 mg/kg): 0
- MIC (K. pneumoniae EN0262): >2 µg/mL

Compound: CO/N=C(\C(=O)N[C@@H]1C(=O)N2C(C(=O)[O-])=C(C[N+]3(C)CCCC3)CS[C@H]12)c1csc(N)n1 [FEP, cefepime]
- MIC (K. pneumoniae EN0262): >16 µg/mL

Compound: COc1cc(Cc2cnc(N)nc2N)c2c(c1OC)OC(C1CC1)C=C2 (centres unmarked) [Iclaprim, iclaprim]
- MIC (S. aureus strain no 13; NO13, read-out: MIC Iclaprim, Uridine 0 μg/ml): > 16 µg/mL
- MIC (S. aureus strain no 13; NO13, read-out: MIC Iclaprim, Uridine 100 μg/ml): > 16 µg/mL

Compound: C[C@@H](O)[C@H]1C(=O)N2C(C(=O)O)=C(S[C@@H]3CN[C@H](C(=O)N(C)C)C3)[C@H](C)[C@H]12 [MEM, meropenem]
- MIC (K. pneumoniae EN0262): >8 µg/mL

Compound: CN(C)c1cc(NC(=O)CNC(C)(C)C)c(O)c2c1C[C@H]1C[C@H]3[C@H](N(C)C)C(O)=C(C(N)=O)C(=O)[C@@]3(O)C(O)=C1C2=O [TGC, tigecycline]
- MIC (K. pneumoniae EN0262): 2 µg/mL (≈ 3.41 µM)

Compound: amoxicillin-clavulanic acid [AMC]
- Antibiogram MIC (S. flexneri APV00907): 16 µg/mL
- Antibiogram category (resistance pattern) (S. flexneri APV00907): |
- Antibiogram MIC (S. flexneri APV00906): 4 µg/mL
- Antibiogram MIC (S. sonnei APV00908): ≤ 2 µg/mL
- MIC (K. pneumoniae EN0262): >64 µg/mL

Compound: colistin [CST]
- MIC (K. pneumoniae EN0262): 1 µg/mL

Compound: gentamicin
- Antibiogram MIC (S. flexneri APV00907): ≤ 1 µg/mL
- Antibiogram category (resistance pattern) (S. flexneri APV00907): R*
- Antibiogram MIC (S. flexneri APV00906): 4 µg/mL
- Antibiogram category (resistance pattern) (S. flexneri APV00906): R*
- Antibiogram MIC (S. sonnei APV00908): ≤ 1 µg/mL
- Antibiogram category (resistance pattern) (S. sonnei APV00908): R*
- MIC (K. pneumoniae EN0262): 1 µg/mL

Compound: piperacillin-tazobactam [TZP]
- Antibiogram MIC (S. flexneri APV00907): ≤ 4 µg/mL
- Antibiogram MIC (S. flexneri APV00906): ≤ 4 µg/mL
- Antibiogram MIC (S. sonnei APV00908): ≤ 4 µg/mL
- MIC (K. pneumoniae EN0262): 64 µg/mL

Compound: trimethoprim-sulfamethoxazole [SXT]
- Antibiogram MIC (S. flexneri APV00907): ≥ 320 µg/mL
- Antibiogram MIC (S. flexneri APV00906): ≥ 320 µg/mL
- Antibiogram MIC (S. sonnei APV00908): ≥ 160 µg/mL
- MIC (K. pneumoniae EN0262): 4 µg/mL
